Measurements from patent publication US7910568B2, “Derivatives of 4- or 5-aminosalicylic acid” (Antibe Therapeutics Inc., priority 2005, dated 2011).

Columns and labels:
IL-10 mRNA = assay: TNBS-induced colitis in mice, colonic IL-10 mRNA by RT-PCR; format: in vivo; conditions: dose equimolar to 50 mg/kg mesalamine; normalized to GAPDH, ratio to healthy controls
Method: (§1) The same model was used as described above. In this example, the effects of mesalamine (50 mg/kg) were compared to those of equimolar doses of Compound XXXV. In addition to measuring the severity of colitis by measuring disease activity score and MPO activity, tissues were processed for measurement of a number of genes for inflammatory cytokines and other mediators.
(§2) In particular, mRNA expression in mice of tumour necrosis factor-alpha (TNF-α), interferon gamma (IFN-γ), colonic interleukin (IL)-1, IL-2, IL-10, IL-12 p40, RANTES, cyclooxygenase (COX)-1, COX-2, constitutive endothelial nitric oxide synthase (eNOS), and inducible NOS (iNOS) was measured as described in Wallace et al. (1999) Gastroenterology 117: 557-566, incorporated herein by reference.
(§3) Briefly, reverse transcription-polymerase chain reaction (RT-PCR) was used to detect and quantify mRNA of the particular cytokine/chemokine/enzyme. Glyceraldehyde-3-phosphate dehydrogenase (GAPDH) was used as the “housekeeping gene” for mRNA expression (i.e., as an internal control). For each sample, the ratio of the amplification of the target gene to the amplification of GAPDH (expression of each is measured by performing densitometry on gels) was obtained. […]

iNOS mRNA = assay: TNBS-induced colitis in mice, colonic iNOS mRNA by RT-PCR; format: in vivo; conditions: dose equimolar to 50 mg/kg mesalamine; FIG. 14
Method: as §1, §2, §3

COX-2 mRNA = assay: TNBS-induced colitis in mice, colonic COX-2 mRNA by RT-PCR; format: in vivo; conditions: dose equimolar to 50 mg/kg mesalamine; FIG. 13
Method: as §1, §2, §3

colonic smooth muscle = assay: Rat colorectal distension, intrarectal pressure / compliance of the colo-rectum; format: in vivo; conditions: 100 mg/kg i.p.; FIG. 16(b)
Text: In the testing day, rats were sedated with ether inhalation and a 2 cm long latex balloon was inserted intrarectally 2 cm from the anal verge and fixed at the base of the tail. The balloon was connected via a double-barreled cannula to a pressure transducer to continuously monitoring the rectal pressure by a computer (PowerLab PC, A.D. Instruments, Milford, Mass., USA) and to a syringe for inflation/deflation of the balloon. The rats were then housed in a small cage (20×8×8 cm) on an elevated Plexiglas™ platform and allowed to wake up and adapt for 1 hour. After recovery from sedation, animals underwent the CRD procedure and behavioral responses were tested. The night before the experiments, the balloons were inflated and left overnight so the latex stretched and the balloons became compliant. CRD of 20 seconds, performed every 5 minutes, was applied in increment of 0.4 ml starting from 0.4 ml up to 1.6 ml water. […] Behavioral responses during the first and the second set of CRD were assessed and compared. To determine the effect of mesalamine or Compound XXXV on colonic smooth muscle, the compliance of the colo-rectum during CRD was obtained from intracolo-rectal volume and pressure and expressed as mL/mmHg. […]

eNOS mRNA = assay: TNBS-induced colitis in mice, colonic eNOS mRNA by RT-PCR; format: in vivo; conditions: dose equimolar to 50 mg/kg mesalamine; FIG. 14
Method: as §1, §2, §3

[1] = system: myeloperoxidase (MPO) activity; assay: TNBS-induced colitis in mice, colonic myeloperoxidase (MPO) activity as marker of granulocyte infiltration; format: in vivo
Method: A standard experimental animal model of colitis induced by intracolonic administration of 2,4,6-trinitrobenzene sulfonic acid (TNBS) to mice is used in the following example. A detailed description of this model has been published (Santucci et al. (2003) Gastroenterology 124:1381-94) and is incorporated herein by reference. Briefly, 6-8 week old Balb/c mice were given TNBS intracolonically at a dose of 1.5 mg in 0.1 mL of 30% ethanol. The mice were randomized to the various treatment groups (n=6 per group). Beginning one hour later and continuing every 12 h for 5 days, the mice were treated orally with vehicle (1% carboxymethylcellulose (CMC)), 5-ASA (mesalamine) (25, 50 or 75 mg/kg) or with equimolar doses of 2-hydroxy-5-amino-benzoic acid 4-(thioxo-5H-[1,2]dithiol-3-yl)-phenyl ester hydrochloride (Compound XXXV) (130 mg/kg), or with […] (100 mg/kg), 50% (66 mg/kg) and 25% (33 mg/kg) of that dose. The mice were evaluated (blindly) on the final day of the study for the presence of diarrhea and fecal occult blood, and their body weights were measured. […] After sacrifice, a sample of the colon was excised for measurement of myeloperoxidase (MPO) activity, as a marker of granulocyte infiltration. All results were compared to those obtained with healthy mice as well.

[2] = H2S generation in buffer, liver homogenate and liver homogenate with PAG, sulfide sensitive electrode; format: in vitro ADME, rat; conditions: 1 mM compound, FIG. 21
COX-1 mRNA = assay: TNBS-induced colitis in mice, colonic COX-1 mRNA by RT-PCR; format: in vivo; conditions: dose equimolar to 50 mg/kg mesalamine; FIG. 13
Method: as §1, §2, §3

**Q.** For `Nc1ccc(O)c(C(=O)Oc2ccc(-c3cc(=S)ss3)cc2)c1` [Compound XXXV, 5-Amino-2-hydroxy-benzoic acid 4-(5-thioxo-5H-[1,2]dithiol-3-yl)-phenyl ester], which “Expression of IL-10 mRNA” value (IL-10 mRNA) is on record?
**A.** did not suppress expression of IL-10 mRNA

**Q.** And the “iNOS mRNA expression” value (iNOS mRNA)?
**A.** suppressed

**Q.** And the “COX-2 mRNA expression” value (COX-2 mRNA)?
**A.** suppressed

**Q.** What about the Intrarectal pressure (colonic smooth muscle) of the same compound?
**A.** successfully reduced intrarectal pressure

**Q.** And the “eNOS mRNA expression” value (eNOS mRNA)?
**A.** suppressed

**Q.** What about the “MPO activity (granulocyte infiltration)” value ([1]; Compound XXXV 130 mg/kg, FIG. 4) of the same compound?
**A.** significantly reduced inflammation

**Q.** What about the MPO activity ([1]; dose-ranging, oral every 12 h for 5 days, highest doses tested, FIG. 2) of the same compound?
**A.** significantly reduced (almost in half)

**Q.** What about the “Effect of PAG (DL-propargylglycine) on H2S generation in liver homogenate” value ([2]; PAG 2 mM, inhibitor of cystathionine γ-lyase) of the same compound?
**A.** lack of effect

**Q.** What about the “H2S release in buffer” value ([2]; potassium phosphate buffer pH 7.4, 37° C.) of the same compound?
**A.** release H2S spontaneously (in buffer)

**Q.** And the “H2S release in liver homogenate compared with buffer” value ([2]; rat liver homogenate 10% (wt/vol))?
**A.** greater when in the presence of tissue

**Q.** What about the “COX-1 mRNA expression” value (COX-1 mRNA) of the same compound?
**A.** suppressed
